# Laboratory results as given in EP0584797A2, “Novel cephalosporin compounds and processes for the preparation thereof” (LUCKY LTD., priority 1992, dated 1994).
# Legend:
# Assay in all cases: minimal inhibitory concentration, two-fold agar dilution
# Type in all cases: cell-based
# [1] = tested on: Bacillus cereus ATCC 11778; settings: ATCC11778, Muller-Hinton agar, 37°C, 20 hours, read-out: MIC values against the standard strains
# Description: (§1) These MIC values were taken by employing a two-fold dilution method: that is, two-fold serial dilutions of each of the test compounds were made and dispersed in a Muller-Hinton agar medium; 2µl of the standard test strain which had the 10⁷ CFU(Colony Forming Unit) per ml was inoculated on the medium; and these were incubated at 37°C for 20 hours.
# [2] = tested on: Proteus mirabilis ATCC 25933; settings: ATCC25933, Muller-Hinton agar, 37°C, 20 hours, read-out: MIC values against the standard strains
# Description: as §1
# [3] = tested on: Streptococcus faecalis ATCC 29212; settings: Enterococcus faecalis, ATCC29212; Muller-Hinton agar; 37°C; 20 hours; read-out: MIC values against the standard strains
# Description: as §1
# [4] = tested on: Enterobacter cloacae ATCC 27508; settings: ATCC27508, Muller-Hinton agar, 37°C, 20 hours, read-out: MIC values against the standard strains
# Description: as §1
# [5] = tested on: Proteus vulgaris ATCC 6059; settings: ATCC6059, Muller-Hinton agar, 37°C, 20 hours, read-out: MIC values against the standard strains
# Description: as §1
# [6] = tested on: Citrobacter freundii ATCC 8090; settings: ATCC8090, Muller-Hinton agar, 37°C, 20 hours, read-out: MIC values against the standard strains
# Description: as §1
# [7] = tested on: Morganella morganii ATCC 8076h; settings: ATCC8076H, Muller-Hinton agar, 37°C, 20 hours, read-out: MIC values against the standard strains
# Description: as §1
# [8] = tested on: Bacillus megaterium ATCC 9885; settings: Priestia megaterium, ATCC9885; Muller-Hinton agar; 37°C; 20 hours; read-out: MIC values against the standard strains
# Description: as §1
# [9] = tested on: Escherichia coli ATCC 10536; settings: ATCC10536, Muller-Hinton agar, 37°C, 20 hours, read-out: MIC values against the standard strains
# Description: as §1
# [10] = tested on: Serratia marcescens ATCC 27117; settings: ATCC27117, Muller-Hinton agar, 37°C, 20 hours, read-out: MIC values against the standard strains
# Description: as §1
# [11] = tested on: Klebsiella pneumoniae ATCC 10031; settings: ATCC10031, Muller-Hinton agar, 37°C, 20 hours, read-out: MIC values against the standard strains
# Description: as §1
# [12] = tested on: Shigella sonnei ATCC 11060; settings: ATCC11060, Muller-Hinton agar, 37°C, 20 hours, read-out: MIC values against the standard strains
# Description: as §1
# [13] = tested on: Salmonella typhimurium ATCC 14028; settings: Salmonella enterica; Muller-Hinton agar; 37°C; 20 hours; read-out: MIC values against the standard strains
# Description: as §1
# [14] = tested on: Providencia rettgeri ATCC 9250; settings: ATCC9250, Muller-Hinton agar, 37°C, 20 hours, read-out: MIC values against the standard strains
# Description: as §1
# [15] = tested on: Shigella flexneri ATCC 11836; settings: ATCC11836, Muller-Hinton agar, 37°C, 20 hours, read-out: MIC values against the standard strains
# Description: as §1
# [16] = tested on: Pseudomonas aeruginosa ATCC 25619; settings: ATCC25619, Muller-Hinton agar, 37°C, 20 hours, read-out: MIC values against the standard strains
# Description: as §1
# [17] = tested on: Micrococcus luteus ATCC 9341; settings: ATCC9341, Muller-Hinton agar, 37°C, 20 hours, read-out: MIC values against the standard strains
# Description: as §1
# [18] = tested on: Staphylococcus aureus ATCC 6538p; settings: ATCC6538P, Muller-Hinton agar, 37°C, 20 hours, read-out: MIC values against the standard strains
# Description: as §1
# [19] = tested on: Staphylococcus aureus ATCC 10537; settings: ATCC10537, Muller-Hinton agar, 37°C, 20 hours, read-out: MIC values against the standard strains
# Description: as §1
# [20] = tested on: Acinetobacter calcoaceticus ATCC 15473; settings: ATCC15473, Muller-Hinton agar, 37°C, 20 hours, read-out: MIC values against the standard strains
# Description: as §1
# [21] = tested on: Pseudomonas aeruginosa ATCC 27853; settings: ATCC27853, Muller-Hinton agar, 37°C, 20 hours, read-out: MIC values against the standard strains
# Description: as §1
# [22] = tested on: Staphylococcus epidermidis ATCC 12228; settings: ATCC12228, Muller-Hinton agar, 37°C, 20 hours, read-out: MIC values against the standard strains
# Description: as §1
# [23] = tested on: Escherichia coli ATCC 25922; settings: ATCC25922, Muller-Hinton agar, 37°C, 20 hours, read-out: MIC values against the standard strains
# Description: as §1
# [24] = tested on: Pseudomonas aeruginosa ATCC 10145; settings: ATCC10145, Muller-Hinton agar, 37°C, 20 hours, read-out: MIC values against the standard strains
# Description: as §1
# [25] = tested on: Enterobacter aerogenes ATCC 29751; settings: Klebsiella aerogenes, ATCC29751; Muller-Hinton agar; 37°C; 20 hours; read-out: MIC values against the standard strains
# Description: as §1
SMILES,MIC [1] [µg/mL],MIC [3] [µg/mL],MIC [4] [µg/mL],MIC [6] [µg/mL],MIC [7] [µg/mL],MIC [8] [µg/mL],MIC [9] [µg/mL],MIC [10] [µg/mL],MIC [11] [µg/mL],MIC [13] [µg/mL],MIC [14] [µg/mL],MIC [15] [µg/mL],MIC [16] [µg/mL],MIC [17] [µg/mL],MIC [18] [µg/mL],MIC [19] [µg/mL],MIC [20] [µg/mL],MIC [21] [µg/mL],MIC [22] [µg/mL],MIC [23] [µg/mL],other results
"CCO/N=C(\C(=O)N[C@@H]1C(=O)N2C(C(=O)[O-])=C(CSc3nc(N)c4ccoc4[n+]3C)CS[C@H]12)c1csc(N)n1 [Example 33, 7-[(Z)-2-(2-aminothiazol-4-yl)-2-(ethoxyimino)acetamido]-3-(4-amino-1-methylfuro-[5,6,e]pyrimidinium-2-yl)thiomethyl-3-cephem-4-carboxylate]",32,8,≤ 0.008,0.063,≤ 0.008,0.063,0.063,0.5,≤ 0.008,0.5,≤ 0.008,0.063,0.5,0.031,0.25,0.25,8,8,0.13,0.063,MIC [2]: 0.5 µg/mL; MIC [5]: 0.25 µg/mL; MIC [12]: 0.13 µg/mL; MIC [24]: 16 µg/mL; MIC [25]: 0.5 µg/mL
"CCO/N=C(\C(=O)N[C@@H]1C(=O)N2C(C(=O)[O-])=C(CSc3nc(N)cc[n+]3N)CS[C@H]12)c1csc(N)n1 [Example 42, 7-[(Z)-2-(2-aminothiazol-4-yl)-2-(ethoxyimino)acetamido]-3-(1,4-diaminopyrimidinium-2-yl)thiomethyl-3-cephem-4-carboxylate]",32,8,≤ 0.008,0.063,0.25,0.063,0.031,0.5,≤ 0.008,0.5,0.063,0.25,0.5,≤ 0.008,0.13,0.13,4,4,0.031,0.031,MIC [2]: 1 µg/mL; MIC [5]: 1 µg/mL; MIC [12]: 0.25 µg/mL; MIC [24]: 8 µg/mL; MIC [25]: 0.13 µg/mL
CC(C)(O/N=C(\C(=O)N[C@@H]1C(=O)N2C(C(=O)[O-])=C(CSc3nc(N)cc[n+]3N)CS[C@H]12)c1csc(N)n1)C(=O)O [Example 43],128,> 128,≤ 0.008,0.063,≤ 0.008,0.5,0.063,0.13,0.063,0.13,≤ 0.008,0.031,1,0.5,8,2,2,1,2,0.063,MIC [2]: 0.031 µg/mL; MIC [5]: 0.031 µg/mL; MIC [12]: 0.063 µg/mL; MIC [24]: 2 µg/mL; MIC [25]: 0.5 µg/mL
"CCO/N=C(\C(=O)N[C@@H]1C(=O)N2C(C(=O)[O-])=C(CSc3nc(N)c(N)c[n+]3N)CS[C@H]12)c1csc(N)n1 [Example 46, 7-[(Z)-2-(2-aminothiazol-4-yl)-2-(ethoxyimino)acetamido]-3-(1,4,5-triaminopyrimidinium-2-yl)thiomethyl-3-cephem-4-carboxylate]",64,8,≤ 0.008,0.063,0.016,0.063,0.031,0.25,0.063,0.25,0.031,0.031,0.5,0.031,0.25,0.13,4,4,0.031,0.031,MIC [2]: 0.25 µg/mL; MIC [5]: 0.25 µg/mL; MIC [12]: 0.031 µg/mL; MIC [24]: 8 µg/mL; MIC [25]: 1 µg/mL
"C[C@@H](O/N=C(\C(=O)N[C@@H]1C(=O)N2C(C(=O)[O-])=C(CSc3nc(N)c(N)c(N)[n+]3C)CS[C@H]12)c1csc(N)n1)C(=O)O [Example 82-b, 7-[(Z)-2-(2-aminothiazol-4-yl)-2-{1-carboxyeth-1-oxyimino}acetamido]-3-(4,5,6-triamino-1-methylpyrimidinium-2-yl)thiomethyl-3-cephem-4-carboxylate]",128,> 128,≤ 0.008,0.063,≤ 0.008,0.5,0.031,0.063,0.031,0.063,≤ 0.008,0.031,1,0.5,8,2,8,1,2,0.031,MIC [2]: 0.031 µg/mL; MIC [5]: 0.031 µg/mL; MIC [24]: 2 µg/mL; MIC [25]: 0.5 µg/mL
"CC[C@@H](O/N=C(\C(=O)N[C@@H]1C(=O)N2C(C(=O)[O-])=C(CSc3nc(N)cc[n+]3N)CS[C@H]12)c1csc(N)n1)C(=O)O [Example 88-b, 7-[(Z)-2-(2-aminothiazol-4-yl)-2-{(R)-1-carboxyprop-1-oxyimino}acetamido]-3-(1,4-diaminopyrimidinium-2-yl)thiomethyl-3-cephem-4-carboxylate]",128,> 128,0.016,0.063,≤ 0.008,1,0.063,0.25,0.031,0.25,≤ 0.008,0.031,1,1,4,4,8,2,2,0.031,MIC [12]: 0.063 µg/mL; MIC [24]: 2 µg/mL; MIC [25]: 1 µg/mL
